Results from the supplement of paper PMC11451515.

System: P12-Ichikawa
Assay: cell viability relative to DMSO control; higher = less cytotoxic
Conditions: 48 h
Method in brief: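 Viability values are per-plate percentages of DMSO wells, with background from cell-free wells. Library compounds in DMSO were pin-dosed, in an 11-point threefold series from 47 μM to 0.79 nM, onto NOMO1 or SEM (500 cells/well) or P12-Ichikawa (1000 cells/well) leukemia cells in 1536-well plates (5 μl). Those cells had been adapted for at least four passages in each medium, and CellTiter-Glo One luminescence was read after 48 h at 37°C.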

[1] = HPLM + 10% dialyzed FBS, 0.000781 µM
[2] = HPLM + 10% dialyzed FBS, 0.00234 µM
[3] = HPLM + 10% dialyzed FBS, 0.00702 µM
[4] = HPLM + 10% dialyzed FBS, 0.0211 µM
[5] = HPLM + 10% dialyzed FBS, 0.0632 µM
[6] = HPLM + 10% dialyzed FBS, 0.19 µM
[7] = HPLM + 10% dialyzed FBS, 0.569 µM
[8] = HPLM + 10% dialyzed FBS, 1.71 µM
[9] = HPLM + 10% dialyzed FBS, 5.12 µM
[10] = HPLM + 10% dialyzed FBS, 15.4 µM
[11] = HPLM + 10% dialyzed FBS, 46.1 µM
[12] = RPMI 5 mM glucose + 10% FBS, 0.000781 µM
[13] = RPMI 5 mM glucose + 10% FBS, 0.00234 µM
[14] = RPMI 5 mM glucose + 10% FBS, 0.00702 µM
[15] = RPMI 5 mM glucose + 10% FBS, 0.0211 µM
[16] = RPMI 5 mM glucose + 10% FBS, 0.0632 µM
[17] = RPMI 5 mM glucose + 10% FBS, 0.19 µM
[18] = RPMI 5 mM glucose + 10% FBS, 0.569 µM
[19] = RPMI 5 mM glucose + 10% FBS, 1.71 µM
[20] = RPMI 5 mM glucose + 10% FBS, 5.12 µM
[21] = RPMI 5 mM glucose + 10% FBS, 15.4 µM
[22] = RPMI 5 mM glucose + 10% FBS, 46.1 µM
[23] = RPMI 5 mM glucose + 10% dialyzed FBS, 0.000781 µM
[24] = RPMI 5 mM glucose + 10% dialyzed FBS, 0.00234 µM
[25] = RPMI 5 mM glucose + 10% dialyzed FBS, 0.00702 µM
[26] = RPMI 5 mM glucose + 10% dialyzed FBS, 0.0211 µM
[27] = RPMI 5 mM glucose + 10% dialyzed FBS, 0.0632 µM
[28] = RPMI 5 mM glucose + 10% dialyzed FBS, 0.19 µM
[29] = RPMI 5 mM glucose + 10% dialyzed FBS, 0.569 µM
[30] = RPMI 5 mM glucose + 10% dialyzed FBS, 1.71 µM
[31] = RPMI 5 mM glucose + 10% dialyzed FBS, 5.12 µM
[32] = RPMI 5 mM glucose + 10% dialyzed FBS, 15.4 µM
[33] = RPMI 5 mM glucose + 10% dialyzed FBS, 46.1 µM

SMILES | cell viability [1] | cell viability [2] | cell viability [3] | cell viability [4] | cell viability [5] | cell viability [6] | cell viability [7] | cell viability [8] | cell viability [9] | cell viability [10] | cell viability [11] | cell viability [12] | cell viability [13] | cell viability [14] | cell viability [15] | cell viability [16] | cell viability [17] | cell viability [18] | cell viability [19] | cell viability [20] | cell viability [21] | cell viability [22] | cell viability [23] | cell viability [24] | cell viability [25] | cell viability [26] | cell viability [27] | cell viability [28] | cell viability [29] | cell viability [30] | cell viability [31] | cell viability [32] | cell viability [33]
O=[S+]([O-])(NCCNC/C=C/c1ccc(Br)cc1)c1cccc2cnccc12 | 108% | 110% | 102% | 105% | 107% | 107% | 106% | 100% | 97% | 95.3% | 95.8% | 99.1% | 108% | 96.4% | 89% | 97.6% | 108% | 102% | 99.2% | 96.6% | 81.5% | 72% | 95.9% | 95.6% | 103% | 96.2% | 99.6% | 101% | 102% | 103% | 95.8% | 77% | 77.8%
NCCc1ccc(O)c(O)c1 | – | – | – | – | – | – | – | – | – | – | – | – | – | – | – | – | – | – | – | – | – | – | 128% | 124% | 123% | 126% | 131% | 123% | 129% | 121% | 121% | 124% | 110%
O=C(O)Cc1cccc(OCCCN(Cc2cccc(C(F)(F)F)c2Cl)CC(c2ccccc2)c2ccccc2)c1 | 117% | 115% | 116% | 121% | 119% | 115% | 116% | 108% | 108% | 102% | 108% | – | – | – | – | – | – | – | – | – | – | – | 119% | 119% | 119% | 124% | 124% | 122% | 118% | 101% | 108% | 98.8% | 103%
Cc1ccc(-c2cc(C(F)(F)F)nn2-c2ccc([S+](N)(=O)[O-])cc2)cc1 | 86.8% | 125% | 118% | 118% | 120% | 110% | 128% | 117% | 115% | 112% | 105% | – | – | – | – | – | – | – | – | – | – | – | 111% | 119% | 122% | 113% | 115% | 123% | 123% | 122% | 121% | 105% | 102%
O=C(NCc1ccccc1)c1csc(Nc2ccncn2)n1 | 91% | 95.5% | 100% | 110% | 105% | 108% | 103% | 85.2% | 62.9% | 5.82% | 1.69% | 94% | 96.1% | 92.9% | 104% | 106% | 94.5% | 104% | 63.7% | 37.6% | 5.79% | 2.56% | 93.4% | 101% | 104% | 112% | 106% | 97.2% | 102% | 80.6% | 36% | 6.99% | 2.78%
N#CC[C@H](C1CCCC1)n1cc(-c2ncnc3[nH]ccc23)cn1 | 95.7% | 95.2% | 98.5% | 98.1% | 98.6% | 90.3% | 89.4% | 91.8% | 72.9% | 52.8% | 40% | 93.7% | 95.7% | 93.4% | 92.6% | 103% | 89.2% | 83.1% | 95.4% | 75.4% | 54.5% | 23.3% | 90.8% | 89% | 86.3% | 87.4% | 89.6% | 88.3% | 82.2% | 87.7% | 70.4% | 41.1% | 23.3%
CN(C)CCOc1ccc(/C(=C(/CCCl)c2ccccc2)c2ccccc2)cc1 | 102% | 110% | 107% | 107% | 106% | 112% | 111% | 88.6% | 67.2% | 59.1% | 34.9% | 108% | 109% | 112% | 108% | 109% | 102% | 103% | 83.1% | 57.9% | 50.5% | 32.2% | 102% | 107% | 112% | 111% | 109% | 102% | 112% | 80.3% | 58.1% | 44.1% | 42.7%
C[C@H](NCc1ccc(OCc2cccc(F)c2)cc1)C(N)=O | 95.1% | 110% | 107% | 123% | 116% | 122% | 114% | 115% | 104% | 98% | 17.8% | 99.9% | 105% | 112% | 119% | 124% | 126% | 134% | 109% | 103% | 87.4% | 32.9% | 96% | 118% | 109% | 114% | 108% | 116% | 117% | 114% | 102% | 80.5% | 33.4%
CC(C)CC(N(C)C)C1(c2ccc(Cl)cc2)CCC1 (centres undefined) | 114% | 120% | 105% | 113% | 114% | 111% | 105% | 86.3% | 57.7% | 54.9% | 34% | 109% | 115% | 113% | 109% | 106% | 112% | 94% | 82.2% | 51.4% | 48.7% | 49.1% | 106% | 114% | 106% | 107% | 111% | 110% | 86.7% | 76.2% | 49.9% | 45.3% | 41.6%
Cc1cccc(-c2[nH]c(C(C)(C)C)nc2-c2ccc3c(c2)OCO3)n1 | 105% | 109% | 110% | 107% | 102% | 105% | 110% | 105% | 100% | 17.5% | 11.1% | 98.4% | 102% | 92.8% | 106% | 96.9% | 97% | 94.1% | 96.2% | 98.6% | 14% | 8.01% | 102% | 112% | – | 108% | 101% | 101% | 106% | 95.9% | 96% | 37.1% | 19.6%
N=C(N)Nc1ccc(C(=O)Oc2ccc3cc(C(=N)N)ccc3c2)cc1 | 88.3% | 104% | 98.8% | 92.5% | 103% | 95.5% | 88.6% | 83.9% | 87.9% | 87.4% | 72.3% | 96.4% | 93% | 99.4% | 90.5% | 102% | 95.9% | 91.1% | 97% | 88.4% | 95.7% | 52% | 83.8% | 92.3% | 86.5% | 83.4% | 89.5% | 85% | 86.7% | 87.1% | 85.1% | 83.7% | 53%
Cc1ccc([S+](=O)([O-])Nc2cc(Cl)ccc2C(=O)Nc2nc(-c3ccccc3)cs2)cc1 | – | – | – | – | – | – | – | – | – | – | – | – | – | – | – | – | – | – | – | – | – | – | 124% | 130% | 117% | 123% | 128% | 119% | 117% | 116% | 114% | 101% | 26.6%
COC(=O)Nc1nc2ccc([S+]([O-])c3ccccc3)cc2[nH]1 (centres undefined) | 109% | 119% | 111% | 114% | 111% | 116% | 122% | 119% | 95.5% | 55.5% | 86% | 100% | 115% | 103% | 119% | 118% | 120% | 115% | 135% | 110% | 74.4% | 92.4% | 118% | 120% | 117% | 118% | 124% | 118% | 128% | 122% | 117% | 95% | 97.4%
C[N+]1(C)[C@@H]2CC(OC(=O)C(O)(c3cccs3)c3cccs3)C[C@H]1[C@@H]1O[C@@H]12 (some centres undefined) | 98.7% | 105% | 109% | 106% | 109% | 110% | 109% | 109% | 103% | 112% | 102% | 117% | 113% | 123% | 111% | 120% | 126% | 120% | 116% | 115% | 111% | 121% | 105% | 101% | 100% | 107% | 105% | 111% | 109% | 109% | 111% | 113% | 101%
CO[C@@H]1[C@@H](O)[C@H](O)[C@@H](n2c3c(Cl)cccc3c3c4c(c5c6cccc(Cl)c6[nH]c5c32)C(=O)NC4=O)O[C@H]1CO | 109% | 100% | 108% | 106% | 100% | 81.9% | 14.3% | 5.78% | 7.57% | 4.61% | 3.32% | 101% | 104% | 103% | 103% | 94.9% | 71% | 8.36% | 6.11% | 4.86% | 3.72% | 3.9% | 97.7% | 91.4% | 96.1% | 94.7% | 85.7% | 68.4% | 14% | 7.72% | 8.77% | 6.63% | 4.8%
C=CC(=O)Nc1ccc2ncnc(Nc3ccc(OCc4cccc(F)c4)c(Cl)c3)c2c1 | 97% | 111% | 104% | 105% | 113% | 109% | 97.2% | 105% | 85.1% | 10.7% | 10.7% | 97.3% | 105% | 109% | 105% | 110% | 107% | 118% | 103% | 83.1% | 13.4% | 12.3% | 97.1% | 111% | 117% | 122% | 111% | 118% | 116% | 107% | 81% | 21.4% | 16.4%
Cc1cnc(Nc2ccc(CN3CCOCC3)cc2)nc1Nc1cccc([S+](=O)([O-])NC(C)(C)C)c1 | 80% | 81.1% | 81.2% | 82.7% | 89.1% | 80.3% | 83.6% | 77.3% | 9.27% | 3.06% | 1.03% | 81.2% | 83.3% | 83.8% | 84.9% | 87.7% | 74.2% | 67.9% | 76.2% | 22.9% | 5.69% | 3.76% | 69.9% | 84.2% | 74.6% | 81.3% | 81% | 72.6% | 75% | 71.6% | 31.2% | 6.47% | 5.08%
